Assay results from ChEMBL document CHEMBL3885861, “Open TG-GATES”.

Species on record: Rattus norvegicus
Assay: Open TG-GATES - Regimen: Daily Repeat
Format: toxicity, organism-based, Sprague-Dawley
Design: regimen Daily Repeat, gender Male, age 6 weeks
Settings: in vivo, po, 200 mg/kg, route gavage, dose level High; for APTT / Bas / Eos / Fbg / Hb / Ht / Lym / MCH / MCHC / MCV / Mono / Neu / PT / Plat / RBC / Ret / WBC: tissue Blood; for KIDNEY_L / KIDNEY_R / KIDNEY_TOTAL: tissue Kidney; for LIVER: tissue Liver; for A/G / ALP / ALT / AST / BUN / CRE / Ca / Cl / DBIL / GLC / IP / K / LDH / Na / PL / RALB / TBIL / TC / TG / TP / gamma-GTP: tissue Plasma

**Q.** What does the source list for `CCc1oc2ccccc2c1C(=O)c1cc(Br)c(O)c(Br)c1` [BENZBROMARONE]?
**A.** TERMINAL_BW (72 h, time 3 day): 217 g; APTT (72 h, time 3 day): 22.6 s; Bas (72 h, time 3 day): 0%; Eos (72 h, time 3 day): 1.2%; Fbg (72 h, time 3 day): 211 mg/dL; Hb (72 h, time 3 day): 14 g/dL; Ht (72 h, time 3 day): 41.9%; Lym (72 h, time 3 day): 80%; MCH (72 h, time 3 day): 21.9 pg; MCHC (72 h, time 3 day): 33.5%; MCV (72 h, time 3 day): 65.5 fL; Mono (72 h, time 3 day): 5%; Neu (72 h, time 3 day): 14.2%; PT (72 h, time 3 day): 14.6 s; Plat (72 h, time 3 day): 104.6 x10_4/uL; RBC (72 h, time 3 day): 640.8 x10_4/ul; Ret (72 h, time 3 day): 5.7%; WBC (72 h, time 3 day): 124.5 x10_2/uL; KIDNEY_L (72 h, time 3 day): 1 g; KIDNEY_R (72 h, time 3 day): 1 g; KIDNEY_TOTAL (72 h, time 3 day): 2 g; LIVER (72 h, time 3 day): 15.3 g; A/G (72 h, time 3 day): 2.6; ALP (72 h, time 3 day): 1041.8 IU/L; ALT (72 h, time 3 day): 45.5 IU/L; AST (72 h, time 3 day): 69.2 IU/L; BUN (72 h, time 3 day): 17 mg/dL; CRE (72 h, time 3 day): 0.7 mg/dL; Ca (72 h, time 3 day): 10 mg/dL; Cl (72 h, time 3 day): 107.9 meq/L; DBIL (72 h, time 3 day): 0.025 mg/dL; GLC (72 h, time 3 day): 167.2 mg/dL; IP (72 h, time 3 day): 6.7 mg/dL; K (72 h, time 3 day): 4.4 meq/L; LDH (72 h, time 3 day): 195 IU/L; Na (72 h, time 3 day): 141.3 meq/L; PL (72 h, time 3 day): 129.2 mg/dL; RALB (72 h, time 3 day): 4.1 g/dL; TBIL (72 h, time 3 day): 0.3 mg/dL; TC (72 h, time 3 day): 73.2 mg/dL; TG (72 h, time 3 day): 52.8 mg/dL; TP (72 h, time 3 day): 5.7 g/dL; gamma-GTP (72 h, time 3 day): 1 IU/L; TERMINAL_BW ([…], time 7 day): 254.9 g; TERMINAL_BW ([…], time 14 day): 307.7 g; TERMINAL_BW ([…], time 28 day): 357.4 g; APTT ([…], time 7 day): 18.9 s; Bas ([…], time 7 day): 0%; Eos ([…], time 7 day): 1.5%; Fbg ([…], time 7 day): 238.5 mg/dL; Hb ([…], time 7 day): 14.4 g/dL; Ht ([…], time 7 day): 42.8%; Lym ([…], time 7 day): 75.5%; MCH ([…], time 7 day): 21.6 pg; MCHC ([…], time 7 day): 33.6%; MCV ([…], time 7 day): 64.1 fL; Mono ([…], time 7 day): 7%; Neu ([…], time 7 day): 16.2%; PT ([…], time 7 day): 12.2 s; Plat ([…], time 7 day): 113.7 x10_4/uL; RBC ([…], time 7 day): 668.5 x10_4/ul; Ret ([…], time 7 day): 5.2%; WBC ([…], time 7 day): 92.8 x10_2/uL; APTT ([…], time 14 day): 18.5 s; Bas ([…], time 14 day): 0%; Eos ([…], time 14 day): 1%; Fbg ([…], time 14 day): 224.4 mg/dL; Hb ([…], time 14 day): 14.3 g/dL; Ht ([…], time 14 day): 42.7%; Lym ([…], time 14 day): 73.6%; MCH ([…], time 14 day): 20.6 pg; MCHC ([…], time 14 day): 33.4%; MCV ([…], time 14 day): 61.6 fL; Mono ([…], time 14 day): 6.2%; Neu ([…], time 14 day): 19.8%; PT ([…], time 14 day): 12.5 s; Plat ([…], time 14 day): 99.2 x10_4/uL; RBC ([…], time 14 day): 694 x10_4/ul; Ret ([…], time 14 day): 4.5%; WBC ([…], time 14 day): 138 x10_2/uL; APTT ([…], time 28 day): 17.9 s; Bas ([…], time 28 day): 0%; Eos ([…], time 28 day): 1.5%; Fbg ([…], time 28 day): 204 mg/dL; Hb ([…], time 28 day): 15 g/dL; Ht ([…], time 28 day): 44.7%; Lym ([…], time 28 day): 79.2%; MCH ([…], time 28 day): 19.1 pg; MCHC ([…], time 28 day): 33.5%; MCV ([…], time 28 day): 57.1 fL; Mono ([…], time 28 day): 5.8%; Neu ([…], time 28 day): 14.2%; PT ([…], time 28 day): 12.5 s; Plat ([…], time 28 day): 99.8 x10_4/uL; RBC ([…], time 28 day): 783.2 x10_4/ul; Ret ([…], time 28 day): 2.7%; WBC ([…], time 28 day): 130.6 x10_2/uL; KIDNEY_L ([…], time 7 day): 1.1 g; KIDNEY_R ([…], time 7 day): 1.1 g; KIDNEY_TOTAL ([…], time 7 day): 2.1 g; KIDNEY_L ([…], time 14 day): 1.2 g; KIDNEY_R ([…], time 14 day): 1.3 g; KIDNEY_TOTAL ([…], time 14 day): 2.5 g; KIDNEY_L ([…], time 28 day): 1.3 g; KIDNEY_R ([…], time 28 day): 1.4 g; KIDNEY_TOTAL ([…], time 28 day): 2.8 g; LIVER ([…], time 7 day): 18.9 g; LIVER ([…], time 14 day): 22.3 g; LIVER ([…], time 28 day): 22.9 g; A/G ([…], time 7 day): 2.6; ALP ([…], time 7 day): 853.5 IU/L; ALT ([…], time 7 day): 34.2 IU/L; AST ([…], time 7 day): 61.2 IU/L; BUN ([…], time 7 day): 22 mg/dL; CRE ([…], time 7 day): 0.6 mg/dL; Ca ([…], time 7 day): 10.5 mg/dL; Cl ([…], time 7 day): 106.8 meq/L; DBIL ([…], time 7 day): 0.0225 mg/dL; GLC ([…], time 7 day): 190 mg/dL; IP ([…], time 7 day): 8.1 mg/dL; K ([…], time 7 day): 4.5 meq/L; LDH ([…], time 7 day): 201.5 IU/L; Na ([…], time 7 day): 140.7 meq/L; PL ([…], time 7 day): 157.5 mg/dL; RALB ([…], time 7 day): 4.7 g/dL; TBIL ([…], time 7 day): 0.2 mg/dL; TC ([…], time 7 day): 100.8 mg/dL; TG ([…], time 7 day): 35.8 mg/dL; TP ([…], time 7 day): 6.5 g/dL; gamma-GTP ([…], time 7 day): 1 IU/L; A/G ([…], time 14 day): 2.3; ALP ([…], time 14 day): 1092 IU/L; ALT ([…], time 14 day): 36.2 IU/L; AST ([…], time 14 day): 63.6 IU/L; BUN ([…], time 14 day): 21 mg/dL; CRE ([…], time 14 day): 0.6 mg/dL; Ca ([…], time 14 day): 10.4 mg/dL; Cl ([…], time 14 day): 107.4 meq/L; DBIL ([…], time 14 day): 0.022 mg/dL; GLC ([…], time 14 day): 186 mg/dL; IP ([…], time 14 day): 7.4 mg/dL; K ([…], time 14 day): 4.3 meq/L; LDH ([…], time 14 day): 163.8 IU/L; Na ([…], time 14 day): 141.7 meq/L; PL ([…], time 14 day): 144.2 mg/dL; RALB ([…], time 14 day): 4.4 g/dL; TBIL ([…], time 14 day): 0.3 mg/dL; TC ([…], time 14 day): 87.4 mg/dL; TG ([…], time 14 day): 36.6 mg/dL; TP ([…], time 14 day): 6.3 g/dL; gamma-GTP ([…], time 14 day): 1 IU/L; A/G ([…], time 28 day): 2.2; ALP ([…], time 28 day): 795 IU/L; ALT ([…], time 28 day): 42.5 IU/L; AST ([…], time 28 day): 64.5 IU/L; BUN ([…], time 28 day): 21 mg/dL; CRE ([…], time 28 day): 0.5 mg/dL; Ca ([…], time 28 day): 9.6 mg/dL; Cl ([…], time 28 day): 108.2 meq/L; DBIL ([…], time 28 day): 0.02 mg/dL; GLC ([…], time 28 day): 178.2 mg/dL; IP ([…], time 28 day): 7 mg/dL; K ([…], time 28 day): 4 meq/L; LDH ([…], time 28 day): 108.2 IU/L; Na ([…], time 28 day): 141.9 meq/L; PL ([…], time 28 day): 120 mg/dL; RALB ([…], time 28 day): 4 g/dL; TBIL ([…], time 28 day): 0.3 mg/dL; TC ([…], time 28 day): 69.5 mg/dL; TG ([…], time 28 day): 34.5 mg/dL; TP ([…], time 28 day): 5.9 g/dL; gamma-GTP ([…], time 28 day): 1.2 IU/L
